Assay results as given in US9957214B2, “Multifunctional radical quenchers” (ARIZONA BOARD OF REGENTS ON BEHALF OF ARIZONA STATE …, priority 2012, dated 2018).

Columns and labels:
[1] = test system: BT474 cell line and FRDA lymphocytes; assay: Cytotoxicity assay (WST-1); format: cell-based, human; conditions: 48 h, varying concentrations
Procedure: FIG. 5. Effect of compound 40 and geldanamycin on cell viability was compared to vehicle (DMSO) after treatment with varying concentrations for 48 h in BT474 cell line and FRDA lymphocytes, respectively. Each measurement is an average of three independent experiments run in quartet.
[…] geldanamycin were tested for their cytotoxicity in human breast cancer cell line BT474 and FRDA lymphocytes using the vital mitochondrial function assay WST-1 Kit (Roche Diagnostics). BT474 cells (2000 cell/well) and FRDA lymphocytes (5000 cell/well) (100 μl) were seeded in 96-well plates and incubated for 48 h. Compound 40 or geldanamycin at varying concentrations were added and the plates were returned to the incubator for 48 h. Cell viability was determined using a WST-1 Kit (Roche Diagnostics) following the manufacturer's instructions. WST-1 reagent (10 μL) was added to each well, containing 200 μL media and further incubation for 2 h (BT474) and 4 h (FRDA lymphocytes). Color intensity was measured at 450 nm using a SpectraMax M5 microplate reader (Molecular Devices, Sunnyvale, Calif., USA). Results are expressed as percentage of viable cells relative to untreated control after subtracting background. Data are expressed as means±S.E.M. (n=3).

[2] = test system: differentiated SH-SY5Y cells; assay: Neuroprotection against Aβ 1-42 oligomer induced cytotoxicity (WST-1); format: cell-based, human; conditions: Aβ 1-42 oligomers 2.5 μM, 48 h
Procedure: FIG. 8. Effect of nitrogen-containing 1,4-benzoquinone 40 and geldanamycin on Aβ 1-42 induced neurotoxicity in differentiated SH-SY5Y cells.
The cytotoxic effect of Aβ 1-42 oligomers (2.5 μM) on differentiated SH-SY5Y cells was evaluated in presence and absence of the test compounds. Sequential treatment of the human SH-SY5Y neuroblastoma cell line with retinoic acid and brain-derived neurotrophic factor (BDNF) generates nearly pure populations of human neuron-like cells, thus providing a model for the study of neuronal differentiation and neuroprotection as previously described, with some modifications (Encinas et al. (2000) J. Neurochem. 75, 991-1003). […] The plates were incubated at 37° C. in an atmosphere having 95% humidity and 5% CO2 for 48 h and then cell viability was measured using a WST-1 Kit (Roche Diagnostics). […] Color intensity was measured with a 96-well plate at 450 nm using a SpectraMax M5 microplate reader (Molecular Devices, Sunnyvale, Calif.). Results are expressed as percentage of viable cells relative to untreated control after subtracting background. Data are expressed as means±S.E.M. (n=3).
Synthetic human Aβ 1-42 was purchased from AnaSpec (San Jose, Calif.). […] Aβ 1-42 peptide content was determined by the method of bicinchoninic acid assay (micro-BCA kit, Pierce) using BSA as reference.

## COC1=C2CCCCCCCCCCCCCCCNC(=CC1=O)C2=O [Compound 40]
[1]
  Cytotoxicity (in words): no cytotoxicity
[2]
  Effect on Aβ 1-42 induced cytotoxicity (in words): decreased Aβ 1-42 induced cytotoxicity in a concentration dependent manner
